These compounds were tested against acyl-CoA:cholesterol acyltransferase (ACAT) (assay: in vitro ACAT inhibition test (formation of radio-labeled cholesterol oleate from radio-labeled oleic acid in rabbit intestinal microsomes)). Details: tissue preparation containing rabbit intestinal microsomes; acylation of cholesterol by oleic acid; read-out: IC₅₀.
Type: biochemical
Description: The test assesses the ability of a test compound to inhibit the acylation of cholesterol by oleic acid by measuring the amount of radio-labeled cholesterol oleate formed from radio-labeled oleic acid in a tissue preparation containing rabbit intestinal microsomes.
For `CCCC(CCC)(CNC(=O)Nc1c(C(C)C)cccc1C(C)C)c1ccccc1` [Example 1, N-[2,6-bis(1-Methylethyl)phenyl]-N′-(2-phenyl-2-propylpentyl)urea], the IC50 was 30 nM.
For `CCC(CC)(CNC(=O)Nc1c(C(C)C)cccc1C(C)C)c1ccccc1` [Example 2, N-[2,6-bis(1-Methylethyl)phenyl]-N′-(2-ethyl-2-phenylbutyl)urea], the IC50 was 17 nM.
With `CCCCC(CCCC)(CNC(=O)Nc1c(C(C)C)cccc1C(C)C)c1ccccc1` [Example 5, N-[2,6-bis(1-Methylethyl)phenyl]-N′-(2-butyl-2-phenylhexyl)urea] the IC50 was 30 nM.
Work on `CC(C)c1cccc(C(C)C)c1NC(=O)NCCc1ccccc1` [Example 6, N-[2,6-bis(1-Methylethyl)phenyl]-N′-(2-phenylethyl)urea] yielded an IC50 of 88 nM.
Work on `CC(C)c1cccc(C(C)C)c1NC(=O)NCC(C)c1ccccc1` (stereo not shown) [Example 7] yielded an IC50 of 35 nM.
Work on `CC(C)c1cccc(C(C)C)c1NC(=O)NCCCc1ccccc1` [Example 8, N-[2,6-bis(1-Methylethyl)phenyl]-N′-(3-phenylpropyl)urea] yielded an IC50 of 191 nM.
Work on `CC(C)c1cccc(C(C)C)c1NC(=O)NCc1cccc2ccccc12` [Example 9, N-[2,6-bis(1-Methylethyl)phenyl]-N′-[(1-naphthalenyl)methyl]urea] yielded an IC50 of 34 nM.
Work on `CC(C)c1cccc(C(C)C)c1NC(=O)NCCc1cccc2ccccc12` [Example 10, N-[2,6-bis(1-Methylethyl)phenyl]-N′-[2-(1-naphthalenyl)ethyl]urea] yielded an IC50 of 41 nM.
`CC(C)c1cccc(C(C)C)c1NC(=O)N[C@H](C)c1cccc2ccccc12` [Example 12, [R]-N-[2,6-bis(1-Methylethyl)phenyl]-N′-[1-(1-naphthalenyl)ethyl]urea] gave an IC50 of 35 nM.
`CC(C)c1cccc(C(C)C)c1NC(=O)N[C@@H](C)c1cccc2ccccc12` [Example 13, [S]-N-[2,6-bis(1-Methylethyl)phenyl]-N′-[1-(1-naphthalenyl)ethyl]urea] showed an IC50 of 630 nM.

Reference: patent EP0344425A2, “N-[[(2,6-disubstituted)phenyl]-N'- arylalkyl] ureas as antihypercholesterolemic and antiatherosclerotic agents” (WARNER-LAMBERT COMPANY, priority 1988, dated 1989)
